These results are taken from US9107918B2, “Method for determining sensitivity to irinotecan and use thereof” (Kabushiki Kaisha Yakult Honsha, priority 2009, dated 2015).

Where a name gives a salt, the structure may show the parent alone.

Holding throughout (format): cell-based, human
Test [1] concerns oral epithelium epidermal cancer cell line KB. In words: MTT growth inhibition, KB. Particulars: KB cells, 72 hours drug exposure. The procedure:
(§1) The sensitivity, to irinotecan and SN-38, of the 19 cultured human tumor cell lines which had been subjected to comprehensive gene expression analysis was determined through the MTT (methylthiazol tetrazolium bromide) method. Specifically, 4×10^3 cells/well of each cell line and 80 μL/well of culture medium (10% fetal serum-added RPMI1640 medium) were added to each well of a 96-well microplate (Nunclon; Nunc, Roskilde, Denmark), and culturing was performed for 24 hours in an incubator at 37° C. under 5% CO2. Thereafter, the culture medium (10% fetal serum-added RPMI1640 medium) was renewed, and SN-38 or irinotecan was added thereto at various concentrations. Culturing was further performed for 72 hours in an incubator at 37° C. under 5% CO2. […] By means of a microplate reader (Maxline Microplate Reader, Molecular Devices, Sunnyvale, Calif.), absorbance at 570 to 650 nm was measured. An average absorbance of wells of culture medium was subtracted from the absorbance of each well of the drug-treatment group, and the obtained values of the wells were averaged. Similarly, the average absorbance of wells of culture medium was subtracted from the absorbance of each well of the control group (non-drug-treatment group), and the obtained values of the wells were averaged. […]

Test [2] deals with lung adenocarcinoma cell line A549. Description: MTT growth inhibition, A549. The note with it: A549 cells, 72 hours drug exposure. The method, then:
as §1

Test [3] has as its system gastric cancer cell line MKN45. In words: MTT growth inhibition, MKN45. Particulars: MKN45 cells, 72 hours drug exposure. The method, then:
as §1

Test [4] relates to acquired CDDP resistant cell line PC-14/CDDP. Description: MTT growth inhibition, PC-14/CDDP. The note with it: PC-14/CDDP cells, 72 hours drug exposure. The procedure: as §1
The test system of test [5] is esophageal cancer cell line HEC-46. In words: MTT growth inhibition, HEC-46. Particulars: HEC-46 cells, 72 hours drug exposure. The procedure: as §1
For test [6], the system named is acquired multidrug resistant cell line K562/DOX. In words: MTT growth inhibition, K562/DOX. Particulars: K562/DOX cells, 72 hours drug exposure. The procedure: as §1
Test [7] concerns colon cancer cell line COLO320DM. In words: MTT growth inhibition, COLO320DM. Particulars: COLO320DM cells, 72 hours drug exposure. The method, then:
as §1

Test [8] relates to myelogenous leukemia cell line K562. In words: MTT growth inhibition, K562. The note with it: K562 cells, 72 hours drug exposure. The method, then:
as §1

The test system of test [9] is colon cancer cell line HCC-50. In words: MTT growth inhibition, HCC-50. Particulars: HCC-50 cells, 72 hours drug exposure. The method, then: as §1
In test [10] the test system is acquired CDDP (cisplatin) resistant cell line PC-9/CDDP. Description: MTT growth inhibition, PC-9/CDDP. Particulars: PC-9/CDDP cells, 72 hours drug exposure. The method, then: as §1
For test [11], the system named is lung adenocarcinoma cell line PC-14. Description: MTT growth inhibition, PC-14. Particulars: PC-14 cells, 72 hours drug exposure. The method, then:
as §1

The test system of test [12] is squamous cell lung cancer cell line LC-S. In words: MTT growth inhibition, LC-S. Particulars: LC-S cells, 72 hours drug exposure. The method, then:
as §1

For test [13], the system named is colon cancer cell line COLO201. Description: MTT growth inhibition, COLO201. Particulars: COLO201 cells, 72 hours drug exposure. The procedure: as §1
Test [14] relates to gastric cancer cell line HSC-42. Description: MTT growth inhibition, HSC-42. The note with it: HSC-42 cells, 72 hours drug exposure. The procedure:
as §1

The subject of test [15] is colon cancer cell line HCC-48. In words: MTT growth inhibition, HCC-48. Particulars: HCC-48 cells, 72 hours drug exposure. The method, then: as §1
The test system of test [16] is acquired SN-38 resistant cell line PC-6/SN2-5. In words: MTT growth inhibition, PC-6/SN2-5. The note with it: PC-6/SN2-5 cells, 72 hours drug exposure. The method, then:
as §1

The test system of test [17] is lung adenocarcinoma cell line PC-9. In words: MTT growth inhibition, PC-9. Particulars: PC-9 cells, 72 hours drug exposure. The procedure: as §1
In test [18] the test system is acquired CPT-11 resistant cell line PC-6/DQ2-2. In words: MTT growth inhibition, PC-6/DQ2-2. Particulars: PC-6/DQ2-2 cells, 72 hours drug exposure. The method, then: as §1
Test [19] deals with small-cell lung cancer cell line PC-6. Description: MTT growth inhibition, PC-6. Particulars: PC-6 cells, 72 hours drug exposure. The method, then: as §1
Setting [20] is: Homo sapiens, read-out: 50% Growth inhibitory concentration (IC50) determined by MTT method.

Consider `CCc1c2c(nc3ccc(OC(=O)N4CCC(N5CCCCC5)CC4)cc13)-c1cc3c(c(=O)n1C2)COC(=O)[C@]3(O)CC` [Irinotecan, Irinotecan hydrochloride], for which the IC50 was found to be 2.23 µg/mL in [1] (setting [20]); 5.63 µg/mL in test [2] (setting [20]); 0.809 µg/mL in test [3] (Homo sapiens, MKN-45, read-out: 50% Growth inhibitory concentration (IC50) determined by MTT method); 4.03 µg/mL in test [4] (setting [20]); 7.79 µg/mL in [5] (setting [20]); 3.93 µg/mL in test [6] (setting [20]). Also, the IC50 amounted to 1.78 µg/mL in [7] (Homo sapiens, COLO 320DM, read-out: 50% Growth inhibitory concentration (IC50) determined by MTT method); 2.3 µg/mL in [8] (setting [20]); 5.11 µg/mL in test [9] (setting [20]); 2.68 µg/mL in test [10] (setting [20]); 4.67 µg/mL in [11] (setting [20]); 18.9 µg/mL in test [12] (setting [20]). In addition, the IC50 in [13] (Homo sapiens, COLO 201, read-out: 50% Growth inhibitory concentration (IC50) determined by MTT method) stood at 0.979 µg/mL; in test [14] (setting [20]) it was 0.743 µg/mL; in test [15] (setting [20]), 1.11 µg/mL; in [16] (setting [20]), 2.85 µg/mL; in [17] (setting [20]), 2.75 µg/mL; in test [18] (setting [20]), 4.26 µg/mL. In addition, the IC50 in test [19] (setting [20]) came out at 0.691 µg/mL.

For `CCc1c2c(nc3ccc(O)cc13)-c1cc3c(c(=O)n1C2)COC(=O)[C@]3(O)CC` [SN-38, 7-ethyl-10-hydroxycamptothecin], the “50% Growth inhibitory concentration (IC50) determined by MTT method” value (“50% Growth inhibitory concentration” for short) stood at 0.00526 µg/mL in [1]; 0.02523 µg/mL in test [2]; 0.0026 µg/mL in [3]; 0.00626 µg/mL in test [4]; 0.03482 µg/mL in test [5]; 0.0041 µg/mL in test [6]. Moreover, the “50% Growth inhibitory concentration” value in test [7] turned out to be 0.00343 µg/mL; in test [8] it was 0.00284 µg/mL; in test [9], 0.02227 µg/mL; in test [10], 0.00905 µg/mL; in test [11], 0.01116 µg/mL; in test [12], 0.13707 µg/mL. The “50% Growth inhibitory concentration” value in test [13] came out at 0.00284 µg/mL; in [14], 0.00281 µg/mL; in test [15], 0.00199 µg/mL; in [16] it was 0.0244 µg/mL; in test [17], 0.00817 µg/mL; in test [18] it was 0.09735 µg/mL. For the same molecule, the “50% Growth inhibitory concentration” value in [19] turned out to be 0.00291 µg/mL.
